The values that follow come from PubChem BioAssay AID1259407 (Chemical Carcinogenesis Research Information System (CCRIS), 2018).

The structures appear in SMILES notation. Calls of active or inactive are those of the source. How the calls were made is not given here.

The data set has as its system CCRIS mutagenicity, Ames/micronucleus/aberration tests. Nature of the data set: CCRIS mutagenicity studies.
The mark [1] stands for this setting: Test System: AMES SALMONELLA TYPHIMURIUM, Strain/Indicator: TA98, Metabolic Activation: NONE, Method: STANDARD PLATE.
[2] abbreviates: Test System: AMES SALMONELLA TYPHIMURIUM, Strain/Indicator: TA98, Metabolic Activation: RAT, LIVER, S-9, AROCLOR 1254, Method: STANDARD PLATE.
Where [3] appears, read: Test System: AMES SALMONELLA TYPHIMURIUM, Strain/Indicator: TA100, Metabolic Activation: NONE, Method: STANDARD PLATE.
The mark [4] stands for this setting: Test System: AMES SALMONELLA TYPHIMURIUM, Strain/Indicator: TA100, Metabolic Activation: RAT, LIVER, S-9, AROCLOR 1254, Method: STANDARD PLATE.
Setting [5] is: Test System: Ames Salmonella typhimurium, Strain/Indicator: TA98, Metabolic Activation: None, Method: Preincubation.
The mark [6] stands for this setting: Test System: Ames Salmonella typhimurium, Strain/Indicator: TA98, Metabolic Activation: Rat, Liver, S9, Sodium phenobarbital and 5,6-benzoflavone (10%), Method: Preincubation.
Setting [7] is: Test System: Ames Salmonella typhimurium, Strain/Indicator: TA100, Metabolic Activation: None, Method: Preincubation.
Setting [8] is: Test System: Ames Salmonella typhimurium, Strain/Indicator: TA100, Metabolic Activation: Rat, Liver, S9, Sodium phenobarbital and 5,6-benzoflavone (10%), Method: Preincubation.
[9] abbreviates: Test System: Ames Salmonella typhimurium, Strain/Indicator: TA1535, Metabolic Activation: None, Method: Preincubation.
Where [10] appears, read: Test System: Ames Salmonella typhimurium, Strain/Indicator: TA1535, Metabolic Activation: Rat, Liver, S9, Sodium phenobarbital and 5,6-benzoflavone (10%), Method: Preincubation.
Setting [11] is: Test System: Ames Salmonella typhimurium, Strain/Indicator: TA1537, Metabolic Activation: None, Method: Preincubation.
The mark [12] stands for this setting: Test System: Ames Salmonella typhimurium, Strain/Indicator: TA1537, Metabolic Activation: Rat, Liver, S9, Sodium phenobarbital and 5,6-benzoflavone (10%), Method: Preincubation.
Where [13] appears, read: Test System: E. coli, Strain/Indicator: WP2uvrA/pKM101, Metabolic Activation: None, Method: Preincubation.
[14] abbreviates: Test System: E. coli, Strain/Indicator: WP2uvrA/pKM101, Metabolic Activation: Rat, Liver, S9, Sodium phenobarbital and 5,6-benzoflavone (10%), Method: Preincubation.
The mark [15] stands for this setting: Test System: AMES SALMONELLA TYPHIMURIUM, Strain/Indicator: TA1535, Metabolic Activation: NONE, Method: STANDARD PLATE.
Setting [16] is: Test System: AMES SALMONELLA TYPHIMURIUM, Strain/Indicator: TA1535, Metabolic Activation: RAT, LIVER, S-9, AROCLOR 1254, Method: STANDARD PLATE.
Where [17] appears, read: Test System: AMES SALMONELLA TYPHIMURIUM, Strain/Indicator: TA1537, Metabolic Activation: NONE, Method: STANDARD PLATE.
Where [18] appears, read: Test System: AMES SALMONELLA TYPHIMURIUM, Strain/Indicator: TA1537, Metabolic Activation: RAT, LIVER, S-9, AROCLOR 1254, Method: STANDARD PLATE.
Setting [19] is: Test System: AMES SALMONELLA TYPHIMURIUM, Strain/Indicator: TA98, Metabolic Activation: NONE, Method: PREINCUBATION

Consider `Cc1cc(S(=O)(=O)O)c(N)cc1Cl`, for which the mutagenic call reads like this: (Test System: AMES SALMONELLA TYPHIMURIUM, Strain/Indicator: TA98, Metabolic Activation: HAMSTER, LIVER, S-9, AROCLOR 1254, Method: STANDARD PLATE) “active; positive”; under setting [1], “inactive; negative”; under setting [2], “active; positive”; (Test System: AMES SALMONELLA TYPHIMURIUM, Strain/Indicator: TA100, Metabolic Activation: HAMSTER, LIVER, S-9, AROCLOR 1254, Method: STANDARD PLATE) “inactive; negative”; under setting [3], “inactive; negative”; under setting [4], “inactive; negative”. Besides, the mutagenic call is “inactive; negative” under setting [5]; “inactive; negative” under setting [6]; “inactive; negative” under setting [7]; “inactive; negative” under setting [8]; “inactive; negative” under setting [9]; “inactive; negative” under setting [10]. The mutagenic call is, setting by setting: under setting [11], “inactive; negative”; under setting [12], “inactive; negative”; under setting [13], “inactive; negative”; under setting [14], “inactive; negative”; (Test System: MOUSE LYMPHOMA, Strain/Indicator: L5178Y (TK+/TK-), Metabolic Activation: NONE, Method: SUSPENSION/PLATE) “inactive; negative. reevaluation of results: negative”; (Test System: MOUSE LYMPHOMA, Strain/Indicator: L5178Y (TK+/TK-), Metabolic Activation: RAT, LIVER, S-9, AROCLOR 1254, Method: SUSPENSION/PLATE) “inactive; negative. reevaluation of results: equivocal”. Where the note is “Test System: UDS RODENT HEPATOCYTES, Strain/Indicator: THY INCORP (NON-S-PHASE), Metabolic Activation: NONE, Method: AUTORADIOGRAPHY”, the mutagenic call is “inactive; negative”.
As to `COc1ccc(CNC(=O)C(C)Br)cc1OC` (stereo not drawn), the mutagenic call under setting [3] is “active; positive”.
As to `CCC(=O)n1ncc(Cl)c(Cl)c1=O`, the mutagenic call under setting [1] was “inactive; negative”; the mutagenic call under setting [2] was “inactive; negative”; the mutagenic call under setting [3] is “inactive; negative”; the mutagenic call under setting [4] was “inactive; negative”; the mutagenic call under setting [15] is “inactive; negative”; the mutagenic call under setting [16] is “inactive; negative”. For the same molecule, the mutagenic call reads like this: under setting [17], “inactive; negative”; under setting [18], “inactive; negative”.
Turning to `O=[N+]([O-])c1ccc2ccc3cccc4c3c2c1C1OC41` (stereo not drawn), the mutagenic call is, setting by setting: (Test System: AMES SALMONELLA TYPHIMURIUM, Strain/Indicator: TA98(1,8-DNP6), Metabolic Activation: RAT, LIVER, S-9, PHENOBARBITAL AND 5,6-BENZOFLAVONE, Method: PREINCUBATION) “active; positive”; (Test System: AMES SALMONELLA TYPHIMURIUM, Strain/Indicator: TA98(NR), Metabolic Activation: NONE, Method: PREINCUBATION) “active; positive”; under setting [19], “active; positive”; (Test System: AMES SALMONELLA TYPHIMURIUM, Strain/Indicator: TA98, Metabolic Activation: RAT, LIVER, S-9, PHENOBARBITAL AND 5,6-BENZOFLAVONE, Method: PREINCUBATION) “inactive; negative”; (Test System: AMES SALMONELLA TYPHIMURIUM, Strain/Indicator: TA100, Metabolic Activation: NONE, Method: PREINCUBATION) “active; positive”; (Test System: AMES SALMONELLA TYPHIMURIUM, Strain/Indicator: TA100, Metabolic Activation: RAT, LIVER, S-9, PHENOBARBITAL AND 5,6-BENZOFLAVONE, Method: PREINCUBATION) “inactive; negative”. Also, the mutagenic call reads like this: (Test System: CHINESE HAMSTER OVARY, Strain/Indicator: CHO (HGPRT)/6-THIOGUANINE, Metabolic Activation: NONE, Method: STANDARD PLATE) “active; positive”; (Test System: CHINESE HAMSTER OVARY, Strain/Indicator: CHO (HGPRT)/6-THIOGUANINE, Metabolic Activation: RAT, LIVER, S-9, AROCLOR 1254, Method: STANDARD PLATE) “active; positive”; (Test System: UDS RODENT HEPATOCYTES, Strain/Indicator: THY INCORP, Metabolic Activation: NONE, Method: AUTORADIOGRAPHY) “active; positive”.
For `Nc1ccc(-c2ccc(N)cc2[N+](=O)[O-])c([N+](=O)[O-])c1`, the mutagenic call is “active; positive” under setting [19] and “active; positive” (Test System: AMES SALMONELLA TYPHIMURIUM, Strain/Indicator: TA98, Metabolic Activation: RAT, LIVER, S-9, KANECHLOR 500, Method: PREINCUBATION).
On to `CC(C)(C)c1ccc(C(=O)O)cc1`, for which the mutagenic call was “inactive; negative” under setting [5]; “inactive; negative” under setting [6]; “inactive; negative” under setting [7]; “inactive; negative” under setting [8]; “inactive; negative” under setting [9]; “inactive; negative” under setting [10]. For the same molecule, the mutagenic call was “inactive; negative” under setting [11], “inactive; negative” under setting [12], “inactive; negative” under setting [13] and “inactive; negative” under setting [14].
Take `O=C(NC(=O)c1c(F)cccc1F)Nc1cc(Cl)c(Oc2ncc(C(F)(F)F)cc2Cl)c(Cl)c1`: the mutagenic call is “inactive; negative” under setting [1]; “inactive; negative” under setting [2]; “inactive; negative” under setting [3]; “inactive; negative” under setting [4]; “inactive; negative” under setting [15]; “inactive; negative” under setting [16]. Besides, the mutagenic call is “inactive; negative” under setting [17]; “inactive; negative” under setting [18]; “inactive; negative” (Test System: AMES SALMONELLA TYPHIMURIUM, Strain/Indicator: TA1538, Metabolic Activation: NONE, Method: STANDARD PLATE); “inactive; negative” (Test System: AMES SALMONELLA TYPHIMURIUM, Strain/Indicator: TA1538, Metabolic Activation: RAT, LIVER, S-9, AROCLOR 1254, Method: STANDARD PLATE).
With `Cn1c(N)nc2c3ccc(=O)[nH]c3ccc21`, the mutagenic call is “active; positive” under setting [19]; “active; positive” under setting [1]; “active; positive” (Test System: AMES SALMONELLA TYPHIMURIUM, Strain/Indicator: TA98, Metabolic Activation: RAT, LIVER, S-9, AROCLOR 1254 (0.5-3 MG/ML), Method: PREINCUBATION); “active; positive” under setting [2].
